In PMC10113987, “A tool for nuclear imaging of the SARS-CoV-2 entry receptor: molecular model and preclinical development of ACE2-selective radiopeptides” (EJNMMI Research, 2023):
Read-outs that look alike come from different tables or passages of the source. Positions of bridges follow the written chain, without caps; N, C: chain ends. Residues, ends and D or L forms follow the SMILES beside them. *: point of attachment. HBEDCC = O=C(O)CCc1ccc(O)c(CN(CCN(CC(=O)O)Cc2cc(CCC(=O)*)ccc2O)CC(=O)O)c1

Columns and labels:
[1] = In vitro stability in mouse blood plasma (TLC); type: in vitro ADME; conditions: 37 °C
Protocol: (§1) The ^67Ga-labeled DX600-radiopeptides (20 MBq/nmol) were incubated in human and mouse plasma (10 MBq/200 µL), respectively, at 37 °C. Aliquots were taken at variable time points up to 24 h for analysis using reversed phase thin layer chromatography (TLC) with citrate buffer (0.1 M, pH 5.5) as a mobile phase. Images of the TLC plates were obtained using a storage phosphor system (Cyclone Plus, PerkinElmer) and quantified using the OptiQuant software (version 5.0, Bright Instrument Co Ltd., PerkinElmer™) (Supplementary Information).
(§2) The radiopeptides were prepared and TLC experiments were performed immediately after radiolabeling by applying the diluted radiopeptides in saline (1 µL; ~0.05 MBq) and [^67Ga]GaCl3 solution (1 µL; ~0.05 MBq) on the TLC plates. The radiopeptides were incubated in mouse or human plasma (10 MBq/200 µL) at 37° C. TLC was performed with an aliquot of the plasma samples at the given timepoints (30 min, 1 h, 3 h and 24 h). The TLC plates were exposed to a phosphor screen followed by development using a storage phosphor system (Cyclone Plus, PerkinElmer). The quantification of the signals was carried out using the OptiQuant software (version 5.0, Bright Instrument Co Ltd., PerkinElmer^TM). The obtained chromatograms were analyzed by determination of the peak area of the radiolabeled peptide, the released gallium-67 as well as degradation products of unknown structure. The quantity of the intact product was expressed as percentage of the sum of integrated peak areas of the entire chromatogram.

[2] = In vitro stability in human blood plasma (TLC); type: in vitro ADME; conditions: 37 °C, whole incubation period of 24 h
Protocol: as §1, §2

[3] = tested on: HEK-ACE2/HEK-ACE-xenografted mice; test: Biodistribution in HEK-ACE2/HEK-ACE xenografted mice; type: in vivo, mouse
Protocol: (§3) All applicable international, national, and/or institutional guidelines for the care and use of animals were followed. In particular, all animal experiments were carried out according to the guidelines of the Swiss Regulations for Animal Welfare. Preclinical studies have been ethically approved by the Cantonal Committee of Animal Experimentation and permitted by the responsible cantonal authorities (License N° 75743). Five-week-old female CD1/nude mice and female immunocompetent FVB mice were obtained from Charles River Laboratories (Sulzfeld, Germany) and fed with standard rodent chow ad libitum. CD1/nude were subcutaneously inoculated with HEK-ACE2 cells (6–8 × 10^6 cells in 100 µL PBS) on the right shoulder and approximately one week later with HEK-ACE (4 × 10^6 cells in 100 µL PBS) on the left shoulder. Imaging and biodistribution studies were performed 2–4 weeks later when the xenografts reached a size of 100–300 mm^3.
Biodistribution studies in xenograft-bearing mice were performed 2–4 weeks after cell inoculation. Mice were intravenously injected with [^67Ga]Ga-DOTA-DX600, [^67Ga]Ga-NODAGA-DX600, [^67Ga]Ga-HBED-CC-DX600 or [^67Ga]Ga-DOTA-BPP9a (3 MBq, 0.5 nmol, 100 µL) diluted in NaCl 0.9% containing 0.05% BSA. The mice were sacrificed 3 h after administration of the radiopeptides. Selected tissues and organs were collected, weighed and counted using a γ-counter. The results were listed as a percentage of the injected activity per gram of tissue mass (% IA/g), using counts of a defined volume of the original injection solution measured simultaneously, resulting in decay-corrected values. Statistical analysis was performed by applying a one‐way ANOVA test with a Tukey’s multiple comparisons post‐test (GraphPad Prism software, version 8.3.1).

[4] = tested on: HEK-ACE2/HEK-ACE-xenografted mice; test: SPECT/CT imaging and quantification of retained activity in HEK-ACE2/HEK-ACE xenografted mice; type: in vivo, mouse; conditions: SPECT/CT quantification, non-decay-corrected
Protocol: as §3
SPECT/CT imaging was performed using a four-head, multiplexing, multipinhole small-animal SPECT camera (NanoSPECT/CT™, Mediso Medical Imaging Systems, Budapest, Hungary). Each head was outfitted with a tungsten-based aperture of nine 1.4 mm-diameter pinholes and a thickness of 10 mm. CT scans of 7.5 min duration were followed by SPECT scans of ~ 50 min performed 1 h, 3 h and 24 h after injection of the respective radiopeptide (10 MBq, 0.5 nmol, 100 μL), diluted in NaCl 0.9% containing 0.05% BSA. During the scan, mice were anesthetized with a mixture of isoflurane and oxygen. The images were acquired using Nucline software (version 1.02, Mediso Ltd., Budapest, Hungary). The real-time CT reconstruction used a cone-beam-filtered backprojection. The reconstruction of SPECT data was performed with the HiSPECT software (version 1.4.3049, Scivis GmbH, Göttingen, Germany) using γ-energies of 93.20 keV (± 10%), 184.60 keV (± 10%) and 300.00 keV (± 10%) for gallium-67. All images were prepared using the VivoQuant post-processing software (version 3.0, inviCRO Imaging Services and Software, Boston, US). A Gauss post-reconstruction filter (full width at half maximum, 1 mm) was applied, and the scale of activity for gallium-67 was set as indicated on the SPECT/CT images. In order to estimate the wash-out of the DX600-based radiopeptides from the HEK-ACE2 xenografts and kidneys over time, the absolute amount of activity was determined in these tissues using the VivoQuant quantification tool. The accumulated activity (non-decay-corrected value in MBq) in the xenografts and kidneys, respectively, obtained at the 1 h p.i. timepoint was set as 100%. The percentage of activity retained in these tissues was determined at 3 h and 24 h p.i. based on the absolute activity determined at these timepoints.

FVB mice = test: In vivo stability in immunocompetent FVB mice (TLC of blood plasma, urine, kidneys); parameters: species or system mouse; conditions: 1 h p.i., fraction of accumulated activity
Protocol: In order to investigate the stability of the radiopeptides, the ^67Ga-labeled DX600 peptides (20 MBq/nmol) were tested in immunocompetent FVB mice (10 MBq in 100 μL per mouse). Before sacrificing, blood was collected from each mouse 1 h after injection of the radiopeptides. After centrifugation, the blood plasma was analyzed using reversed phase TLC with citrate buffer (0.1 M, pH 5.5) as a mobile phase. The kidneys were collected and processed to investigate the presence of intact radiopeptides and potential metabolites using the same TLC system. The analysis of the chromatograms was performed as described for the in vitro plasma stability (Additional file 1).
Methods: Immunocompetent FVB mice were injected with the DX600-based radiopeptides (n=2). One hour later, urine was collected and blood was sampled from the retrobulbar vein followed by centrifugation (10 min, 200 rcf). A drop of urine and blood plasma was analyzed using the TLC method described for in vitro stability experiments above (reversed phase as stationary phase and citrate buffer pH 5.5 as mobile phase). The data were also confirmed using normal phase TLC. Kidneys of mice were collected, cut into small pieces, homogenized in 200 μL buffer solution (ice-cold methanol containing 0.025% NH4OH) and centrifuged (5 min, 2300 rcf, 4° C) as described by Boss et al.. An aliquot of the supernatant of each sample was developed using the same TLC method as for urine and blood plasma samples. The TLC plates were exposed to a phosphor screen which was afterwards read using a storage phosphor system (Cyclone Plus, PerkinElmer). The quantification of the signals was carried out using the OptiQuant software (version 5.0, Bright Instrument Co Ltd., PerkinElmer^TM). The obtained chromatograms were analyzed by determination of the peak area of the radiolabeled peptide, the released gallium-67 as well as degradation products of unknown structure. The quantity of the intact product was expressed as percentage of the sum of integrated peak areas of the entire chromatogram.

[5] = parameters: method as in doi:10.1016/0020-1693(94)04012-5; conditions: cited from earlier work
[6] = 3 h after i.v. injection, decay-corrected, n = 3

SMILES: CC(=O)N[C@@H](CCCCNC(=O)CCc1ccc(O)c(CN(CCN(CC(=O)O)Cc2cc(CCC(=O)O)ccc2O)CC(=O)O)c1)C(=O)NCC(=O)N[C@@H](CC(=O)O)C(=O)N[C@@H](Cc1ccc(O)cc1)C(=O)N[C@@H](CO)C(=O)N[C@@H](Cc1c[nH]cn1)C(=O)N[C@H]1CSSC[C@@H](C(=O)N[C@H](C(=O)N[C@@H](Cc2ccc(O)cc2)C(=O)N2CCC[C@H]2C(=O)N[C@@H](CC(=O)O)C(=O)N2CCC[C@H]2C(=O)N[C@@H](CCC(=O)O)C(=O)NCC(=O)NCC(=O)NCC(N)=O)[C@@H](C)O)NC(=O)[C@H](CCCCN)NC(=O)[C@H](Cc2c[nH]c3ccccc23)NC(=O)[C@H](Cc2c[nH]c3ccccc23)NC(=O)[C@@H]2CCCN2C(=O)[C@H](Cc2ccc(O)cc2)NC(=O)[C@H](Cc2ccc(O)cc2)NC(=O)[C@H](CCCNC(=N)N)NC(=O)[C@H](CC(C)C)NC(=O)[C@@H]2CCCN2C(=O)[C@H](CO)NC1=O [[^67Ga]Ga-HBED-CC-DX600, metal not drawn] (Ac-K(HBEDCC)GDYSHCSPLRYYPWWKCTYPDPEGGG-NH2; disulfide 7-18)
- Intact radiopeptide in mouse blood plasma ([1]; 3 h): 87 ± 2%
- Intact radiopeptide in mouse blood plasma ([1]; 24 h): 29 ± 1%
- Intact radiopeptide in human blood plasma [2]: > 99%
- Biodistribution: ACE2 xenograft (HEK-ACE2) [3, 6]: 12.3 ± 1.3 % IA/g
- Biodistribution: ACE xenograft (HEK-ACE) [3, 6]: < 0.5 % IA/g
- Biodistribution: blood [3, 6]: 0.09 ± 0.04 % IA/g
- Biodistribution: bone [3, 6]: 0.05 ± 0.02 % IA/g
- Biodistribution: heart [3, 6]: 0.07 ± 0.03 % IA/g
- Biodistribution: intestines [3, 6]: 0.43 ± 0.31 % IA/g
- Biodistribution: kidneys (renal retention) [3, 6]: 7.2 ± 2.2 % IA/g
- Biodistribution: liver [3, 6]: 0.23 ± 0.16 % IA/g
- Biodistribution: lung [3, 6]: 0.13 ± 0.05 % IA/g
- Biodistribution: muscle [3, 6]: 0.03 ± 0.02 % IA/g
- Biodistribution: salivary glands [3, 6]: 0.05 ± 0.02 % IA/g
- Biodistribution: spleen [3, 6]: 0.06 ± 0.03 % IA/g
- Biodistribution: stomach [3, 6]: 0.09 ± 0.03 % IA/g
- Biodistribution: ACE xenograft (HEK-ACE) ([3]; 3 h after i.v. injection, decay-corrected, n = 3, listed as [^67Ga]Ga-HBED-CC- DX600): 0.27 ± 0.33 % IA/g
- HEK-ACE2 xenograft-to-kidney ratio ([3]; 3 h after injection): 1.77 ± 0.34
- Activity retained in the kidneys relative to the 1 h p.i.-timepoint ([4]; 3 h p.i.): 30%
- Activity retained in the kidneys relative to the 1 h p.i.-timepoint ([4]; 24 h p.i.): < 1%
- Intact radiopeptide in kidney homogenates (FVB mice): > 92%
- Radiometabolites in kidney homogenates (FVB mice): ~ 7.5%

SMILES: O=C(O)CCc1ccc(O)c(CN(CCN(CC(=O)O)Cc2cc(CCC(=O)O)ccc2O)CC(=O)O)c1 [HBED-CC, 3-(3-((2-((5-(2-carboxyethyl)-2-hydroxyphenyl)methyl-(carboxymethyl)amino)ethyl-(carboxymethyl)amino)methyl)-4-hydroxyphenyl)propanoic acid]
- logK of coordination ([5]; Ga^3+): 38
- logK of coordination ([5]; Zn^2+): 18
